Reference: the NIST ThermoML archive (doi:10.1021/acs.jced.6b00577)
Numbers after ± are expanded uncertainties.

Settings: Liquid, Frequency=8 MHz, Pulse-echo method

CCCC [butane]
Settings	speed of sound [m/s]
199.99 K, 40128 kPa	1640.8 ± 0.79
199.99 K, 45132 kPa	1662 ± 0.8
199.99 K, 50136 kPa	1682.6 ± 0.81
200 K, 1101.4 kPa	1447.8 ± 0.72
200 K, 2102.1 kPa	1453.5 ± 0.72
200 K, 3102.8 kPa	1459.2 ± 0.72
200 K, 4103.5 kPa	1464.9 ± 0.72
200 K, 5104.2 kPa	1470.5 ± 0.72
200 K, 6105.1 kPa	1476 ± 0.73
200 K, 7105.9 kPa	1481.5 ± 0.73
200 K, 8106.6 kPa	1487 ± 0.73
200 K, 9107.3 kPa	1492.4 ± 0.73
200 K, 10108 kPa	1497.8 ± 0.74
200 K, 12610 kPa	1510.9 ± 0.74
200 K, 15112 kPa	1523.8 ± 0.75
200 K, 17613 kPa	1536.5 ± 0.75
200 K, 20115 kPa	1548.9 ± 0.75
200 K, 25119 kPa	1573.1 ± 0.76
200 K, 30123 kPa	1596.4 ± 0.77
200 K, 35126 kPa	1619 ± 0.78
200 K, 60143 kPa	1722.2 ± 0.82
200 K, 70150 kPa	1759.8 ± 0.84
200 K, 80157 kPa	1795.8 ± 0.85
200 K, 90164 kPa	1830.2 ± 0.86
200 K, 100171 kPa	1863.2 ± 0.88
201 K, 250.62 kPa	1437.2 ± 0.71
201 K, 600.55 kPa	1439.2 ± 0.71
201 K, 1100.5 kPa	1442.1 ± 0.71
201 K, 1101.5 kPa	1442.2 ± 0.71
201 K, 2101.9 kPa	1448 ± 0.72
201 K, 2102 kPa	1448 ± 0.72
201 K, 3102.6 kPa	1453.7 ± 0.72
201 K, 4103.4 kPa	1459.4 ± 0.72
201 K, 5104 kPa	1465 ± 0.72
220 K, 249.98 kPa	1330.5 ± 10
220 K, 599.68 kPa	1332.8 ± 0.67
220 K, 1100.7 kPa	1336.1 ± 0.67
220 K, 1100.8 kPa	1336.1 ± 0.67
220 K, 2101.6 kPa	1342.7 ± 0.68
220 K, 2101.8 kPa	1342.7 ± 0.68
220 K, 2102.1 kPa	1342.7 ± 0.68
220 K, 2103.4 kPa	1342.6 ± 0.68
220 K, 3102.3 kPa	1349.1 ± 0.68
220 K, 3104.1 kPa	1349.1 ± 0.68
220 K, 4103 kPa	1355.5 ± 0.68
220 K, 4104.7 kPa	1355.5 ± 0.68
220 K, 5103.6 kPa	1361.9 ± 0.68
220 K, 6104.2 kPa	1368.2 ± 0.68
220 K, 7104.9 kPa	1374.3 ± 0.69
220 K, 8105.5 kPa	1380.5 ± 0.69
220 K, 9106.2 kPa	1386.6 ± 0.69
220 K, 10107 kPa	1392.6 ± 0.69
220 K, 12609 kPa	1407.3 ± 0.7
220 K, 15111 kPa	1421.8 ± 0.71
220 K, 17612 kPa	1435.8 ± 0.71
220 K, 20114 kPa	1449.6 ± 0.72
220 K, 25118 kPa	1476.2 ± 0.73
220 K, 30121 kPa	1501.8 ± 0.74
220 K, 35125 kPa	1526.5 ± 0.75
220 K, 40129 kPa	1550.3 ± 0.76
220 K, 45133 kPa	1573.3 ± 0.76
220 K, 50136 kPa	1595.6 ± 0.77
220 K, 60144 kPa	1638.2 ± 0.79
220 K, 70151 kPa	1678.5 ± 0.81
220 K, 80158 kPa	1716.8 ± 0.82
220 K, 90165 kPa	1753.2 ± 0.83
220 K, 100172 kPa	1788.2 ± 0.85
240 K, 252.21 kPa	1219.3 ± 0.63
240 K, 602.15 kPa	1222 ± 0.63
240 K, 1103 kPa	1225.8 ± 0.63
240 K, 2103.5 kPa	1233.3 ± 0.63
240 K, 2104.3 kPa	1233.3 ± 0.63
240 K, 3104.1 kPa	1240.7 ± 0.64
240 K, 3105.1 kPa	1240.7 ± 0.64
240 K, 4104.7 kPa	1248 ± 0.64
240 K, 4105.9 kPa	1248 ± 0.64
240 K, 5105.3 kPa	1255.2 ± 0.64
240 K, 5106.6 kPa	1255.2 ± 0.64
240 K, 6107.3 kPa	1262.3 ± 0.64
240 K, 7108.1 kPa	1269.3 ± 0.65
240 K, 8108.8 kPa	1276.2 ± 0.65
240 K, 9109.5 kPa	1283.1 ± 0.65
240 K, 10110 kPa	1289.8 ± 0.65
240 K, 12612 kPa	1306.4 ± 0.66
240 K, 15113 kPa	1322.5 ± 0.67
240 K, 17615 kPa	1338.1 ± 0.67
240 K, 20116 kPa	1353.3 ± 0.68
240 K, 25120 kPa	1382.7 ± 0.69
240 K, 30123 kPa	1410.7 ± 0.7
240 K, 35127 kPa	1437.6 ± 0.71
240 K, 40130 kPa	1463.4 ± 0.72
240 K, 45134 kPa	1488.2 ± 0.73
240 K, 50138 kPa	1512.2 ± 0.74
240 K, 60145 kPa	1557.8 ± 0.76
240 K, 70152 kPa	1600.8 ± 0.78
240 K, 80158 kPa	1641.4 ± 0.79
240 K, 90165 kPa	1680 ± 0.81
240 K, 100172 kPa	1716.9 ± 0.82
259.99 K, 12610 kPa	1208.1 ± 0.62
259.99 K, 80158 kPa	1569.8 ± 0.76
259.99 K, 90165 kPa	1610.4 ± 0.78
260 K, 251.45 kPa	1109.1 ± 0.58
260 K, 601.45 kPa	1112.2 ± 0.59
260 K, 1102.2 kPa	1116.6 ± 0.59
260 K, 2102.8 kPa	1125.3 ± 0.59
260 K, 2103.1 kPa	1125.3 ± 0.59
260 K, 3103.4 kPa	1133.8 ± 0.59
260 K, 3103.8 kPa	1133.8 ± 0.59
260 K, 4104.1 kPa	1142.1 ± 0.6
260 K, 4104.5 kPa	1142.2 ± 0.6
260 K, 5104.7 kPa	1150.3 ± 0.6
260 K, 5105.2 kPa	1150.4 ± 0.6
260 K, 6105.9 kPa	1158.5 ± 0.6
260 K, 7106.5 kPa	1166.4 ± 0.61
260 K, 8107.2 kPa	1174.3 ± 0.61
260 K, 9108 kPa	1182 ± 0.61
260 K, 10108 kPa	1189.6 ± 0.62
260 K, 15112 kPa	1226 ± 0.63
260 K, 17613 kPa	1243.4 ± 0.64
260 K, 20115 kPa	1260.3 ± 0.64
260 K, 25119 kPa	1292.5 ± 0.66
260 K, 30122 kPa	1323.2 ± 0.67
260 K, 35126 kPa	1352.3 ± 0.68
260 K, 40129 kPa	1380.2 ± 0.69
260 K, 45133 kPa	1406.9 ± 0.7
260 K, 50136 kPa	1432.6 ± 0.71
260 K, 60144 kPa	1481.3 ± 0.73
260 K, 70151 kPa	1526.8 ± 0.75
260 K, 100172 kPa	1649 ± 0.79
280 K, 250.96 kPa	999.47 ± 0.54
280 K, 601 kPa	1003.1 ± 0.54
280 K, 1101.7 kPa	1008.2 ± 0.55
280 K, 2102.4 kPa	1018.3 ± 0.55
280 K, 3103 kPa	1028.1 ± 0.55
280 K, 3103.1 kPa	1028.2 ± 0.55
280 K, 4103.6 kPa	1037.8 ± 0.56
280 K, 4103.9 kPa	1037.8 ± 0.56
280 K, 5104.1 kPa	1047.2 ± 0.56
280 K, 5104.6 kPa	1047.2 ± 0.56
280 K, 6105.4 kPa	1056.5 ± 0.56
280 K, 7106.1 kPa	1065.6 ± 0.57
280 K, 8106.8 kPa	1074.5 ± 0.57
280 K, 9107.5 kPa	1083.2 ± 0.57
280 K, 10108 kPa	1091.8 ± 0.58
280 K, 12610 kPa	1112.6 ± 0.59
280 K, 15112 kPa	1132.7 ± 0.59
280 K, 17613 kPa	1151.9 ± 0.6
280 K, 20115 kPa	1170.5 ± 0.61
280 K, 25118 kPa	1206 ± 0.62
280 K, 30122 kPa	1239.3 ± 0.64
280 K, 35125 kPa	1270.9 ± 0.65
280 K, 40128 kPa	1300.9 ± 0.66
280 K, 45132 kPa	1329.5 ± 0.67
280 K, 50135 kPa	1357 ± 0.68
280 K, 60142 kPa	1408.7 ± 0.7
280 K, 70149 kPa	1456.8 ± 0.72
280 K, 80159 kPa	1502 ± 0.74
280 K, 90166 kPa	1544.6 ± 0.75
280 K, 100173 kPa	1584.9 ± 0.77
299.99 K, 80158 kPa	1438.2 ± 0.71
299.99 K, 90165 kPa	1482.7 ± 0.73
299.99 K, 100172 kPa	1524.7 ± 0.75
300 K, 599.94 kPa	893.83 ± 0.5
300 K, 2102 kPa	911.89 ± 0.51
300 K, 2104.2 kPa	911.91 ± 0.51
300 K, 3102.8 kPa	923.46 ± 0.51
300 K, 3104.9 kPa	923.48 ± 0.51
300 K, 4103.6 kPa	934.71 ± 0.52
300 K, 4105.7 kPa	934.73 ± 0.52
300 K, 5104.4 kPa	945.67 ± 0.52
300 K, 5105.9 kPa	945.68 ± 0.52
300 K, 6106.5 kPa	956.35 ± 0.53
300 K, 7107.2 kPa	966.78 ± 0.53
300 K, 8107.8 kPa	976.95 ± 0.53
300 K, 9108.4 kPa	986.91 ± 0.54
300 K, 10109 kPa	996.68 ± 0.54
300 K, 12610 kPa	1020.2 ± 0.55
300 K, 15112 kPa	1042.6 ± 0.56
300 K, 17614 kPa	1064 ± 0.57
300 K, 20115 kPa	1084.5 ± 0.58
300 K, 25118 kPa	1123.3 ± 0.59
300 K, 30122 kPa	1159.6 ± 0.6
300 K, 35125 kPa	1193.6 ± 0.62
300 K, 40129 kPa	1225.8 ± 0.63
300 K, 45132 kPa	1256.4 ± 0.64
300 K, 50136 kPa	1285.6 ± 0.65
300 K, 60143 kPa	1340.3 ± 0.67
300 K, 70150 kPa	1390.9 ± 0.69
300.01 K, 1100.4 kPa	899.93 ± 0.5
320 K, 601.27 kPa	783.22 ± 0.46
